From US10413575B2, “Pharmaceutical composition for preventing or treating inflammatory diseases, containing Lactococcus chungangensis as active ingredient” (CHUNG-ANG UNIVERSITY INDUSTRY-ACADEMIC COOPERATION …, priority 2015, dated 2019)

Tests used:
[1] = test system: IgE; experiment: Immunoglobulin IgE measurement in serum (ELISA), BALB/c mice; format: in vivo; conditions: skin application, compared with the DNCB-induced group
Description: (§2) After the ending of the treatment with test materials, BALB/c and NC/Nga mice of the five groups were sacrificed, and blood was collected from the heart. Serum was isolated from the blood to measure IgE. […] Absorbance was measured at 450 nm using a microplate reader to determine IgE protein level.

[2] = test system: DNCB-induced atopic BALB/c mice and NC/Nga mice; experiment: Histopathological test (H&E) of dorsal skin tissue and ears; format: in vivo; conditions: skin application, vs DNCB-induced atopic mice
Description: Mice were divided into a total of five groups, a non-treatment (normal) group, a DNCB group, a Tacrolimus skin application group, a Lactococcus chungangensis skin application group, and a Lactococcus chungangensis oral administration group. Then, 0.1 g of hair removal cream was applied on the back and neck of BALB/c and NC/Nga mice, respectively, and hairs were removed using soft tissue paper to avoid wounds. After the mice were left for 5 days to heal minor wounds, 1% DNCB 200 (acetone:olive oil=3:1) was applied to the back and ears three times a week for two weeks to induce atopy. After atopy induction, Lactococcus chungangensis was applied to diseased parts at 10^9 cell/mouse twice a week for four weeks, while Lactococcus chungangensis was administered to oral cavity at 10^9 cell/mouse twice a week for four weeks. For efficacy comparison, Tacrolimus in use as an atopy medicine was used. Tacrolimus was applied to atopy diseased parts at 100 mg/kg twice a week for four weeks.
After the treatment of test materials, the dorsal skin tissue (1.5×1.5 cm) and ears of BALB/c mice and NC/Nga mice of the test and control groups were taken off, and fixed in 10% paraformaldehyde for 24 hours. The tissues were sufficiently hardened in paraffin, and sliced into five pieces to prepare slide glasses. […]

[3] = test system: DNCB-induced atopic NC/Nga mice; experiment: Visual evaluation of DNCB-induced atopic NC/Nga mice; format: in vivo; set-up: key to dryness/scarring / edema / erosion/excoriation / erythema/hemorrhage: 0=absence; 1=mild; 2=moderate; 3=severe; key to Total severity score / Mean severity score: sum of 4 signs each 0=absence to 3=severe; conditions: skin application
Description: (§1) Mice were divided into a total of five groups, a non-treatment (normal) group, a DNCB group, a Tacrolimus skin application group, a Lactococcus chungangensis skin application group, and a Lactococcus chungangensis oral administration group. Then, 0.1 g of hair removal cream was applied on the back and neck of BALB/c and NC/Nga mice, respectively, and hairs were removed using soft tissue paper to avoid wounds. After the mice were left for 5 days to heal minor wounds, 1% DNCB 200 (acetone:olive oil=3:1) was applied to the back and ears three times a week for two weeks to induce atopy. After atopy induction, Lactococcus chungangensis was applied to diseased parts at 10^9 cell/mouse twice a week for four weeks, while Lactococcus chungangensis was administered to oral cavity at 10^9 cell/mouse twice a week for four weeks. For efficacy comparison, Tacrolimus in use as an atopy medicine was used. Tacrolimus was applied to atopy diseased parts at 100 mg/kg twice a week for four weeks. Visual evaluation was conducted to determine a treatment effect in each of a Tacrolimus skin application group, a Lactococcus chungangensis skin application group, and a Lactococcus chungangensis oral administration group. Visual evaluation was conducted by evaluating the skin condition in four stages (0=absence, 1=mild, 2=moderate, 3=severe) according to the severity of erythema/hemorrhage, dryness/scarring, edema, and erosion/excoriation as evaluation indexes. A severity score of about 12 point or more was determined that the atopy symptoms reach the highest peak. The results are shown in Tables 1 to 5 for BALB/c mice, and Tables 6 to 10 for NC/Nga mice.

[4] = test system: IgE; experiment: Immunoglobulin IgE measurement in serum (ELISA), NC/Nga mice; format: in vivo; conditions: skin application
Description: as §2

[5] = test system: IL-4, IL-5, IL-12, IFN-γ, TNF-α, and TARC; experiment: Chemokine and cytokine mRNA expression in skin tissues (reverse transcription PCR); format: in vivo, BALB/c mice and NC/Nga mice; conditions: skin application
Description: After the ending of the treatment of the BALB/c and NC/Nga mice with test materials, the BALB/c and NC/Nga mice of the DNCB-induced atopic control group, the Tacrolimus skin application group, the Lactococcus chungangensis skin application group, and the Lactococcus chungangensis oral administration group were sacrificed. The skin tissues were extracted, and Trizol was added thereto, and the skin tissues were homogenized using a homogenizer until dissolved, and RNA was extracted from the homogenized tissues. Specifically, Trizol was added to the skin tissues extracted from BALB/c mice and NC/Nga mice of each of the control and test groups, and chloroform (CHCl3) was added thereto and mixed. Then, the mixture was allowed to stand for 10 minutes and centrifuged. The centrifuged supernatant was recovered, mixed with the same amount of 2-propanol, allowed to stand for 10 minutes, centrifuged again, washed with 80% EtOH, and dried, to thereby obtain RNA. cDNA was obtained by reverse transcription PCR using AMV reverse transcriptase, dNTP (Promega, Madison, Wis.), EX Taq DNA polymerase (Takara Shuzou, Kyoto, Japan), and the obtained cDNA was used to investigate the mRNA expression levels of atopic-related chemokines and cytokines. Specifically, PCR was performed using the primer pairs described in Table 5 below for chemokines and cytokines IL-4, IL-5, IL-12, IFN-γ, TNF-α, and TARC and control GAPDH, respectively. The PCR was performed for 30 cycles of 1 minute at 94° C., 30 seconds at 95° C., 30 seconds at 55-65° C., and 3 minutes at 70° C.

[6] = test system: DNCB-induced atopic BALB/c mice; experiment: Visual evaluation of DNCB-induced atopic BALB/c mice; format: in vivo; set-up: key to dryness/scarring / edema / erosion/excoriation / erythema/hemorrhage: 0=absence; 1=mild; 2=moderate; 3=severe; key to Total severity score / Mean severity score: sum of 4 signs each 0=absence to 3=severe; conditions: skin application
Description: as §1

[7] = test system: IL-4, IL-5, IL-12, IFN-γ, TNF-α, and TARC; experiment: Chemokine and cytokine protein levels in serum (ELISA); format: in vivo; conditions: BALB/c and NC/Nga, skin application, vs DNCB-induced atopy mice
Description: Mice were divided into a total of five groups, a non-treatment (normal) group, a DNCB group, a Tacrolimus skin application group, a Lactococcus chungangensis skin application group, and a Lactococcus chungangensis oral administration group. Then, 0.1 g of hair removal cream was applied on the back and neck of BALB/c and NC/Nga mice, respectively, and hairs were removed using soft tissue paper to avoid wounds. After the mice were left for 5 days to heal minor wounds, 1% DNCB 200 (acetone:olive oil=3:1) was applied to the back and ears three times a week for two weeks to induce atopy. After atopy induction, Lactococcus chungangensis was applied to diseased parts at 10^9 cell/mouse twice a week for four weeks, while Lactococcus chungangensis was administered to oral cavity at 10^9 cell/mouse twice a week for four weeks. […] Tacrolimus was applied to atopy diseased parts at 100 mg/kg twice a week for four weeks.
In addition, the protein level changes of IL-4, IL-5, IL-12, IFN-γ, TNF-α, and TARC in the serum isolated from the blood taken from the heart of each of BALB/c mice and NC/Nga mice were measured using IL-4 Quantikine Immunoassay Kit, IL-5 Quantikine Immunoassay Kit, IL-12 Quantikine Immunoassay Kit, TNF-α Quantikine Immunoassay Kit, CCL17/TARC Quantikine Immunoassay Kit (R&D Systems, Minneapolis, Minn., USA), respectively, and the absorbance was determined at 450 nm by using a microplate reader.

C=CC[C@@H]1/C=C(\C)C[C@H](C)C[C@H](OC)[C@H]2O[C@@](O)(C(=O)C(=O)N3CCCC[C@H]3C(=O)O[C@H](/C(C)=C/[C@@H]3CC[C@@H](O)[C@H](OC)C3)[C@H](C)[C@@H](O)CC1=O)[C@H](C)C[C@@H]2OC [Tacrolimus]
2.5: Mean severity score ([6]; 6 Weeks)
9.5: Mean severity score ([6]; 4 Weeks)
8: Total severity score ([3]; 6 Weeks, evaluation 12) | Mean severity score ([6]; 2 Weeks) | Total severity score ([6]; 2 Weeks, evaluation 3) | Total severity score ([6]; 2 Weeks, evaluation 4)
12: Total severity score ([3]; 3 Weeks, evaluation 5) | Total severity score ([3]; 4 Weeks, evaluation 7)
11.5: Mean severity score ([3]; 3 Weeks) | Mean severity score ([3]; 4 Weeks)
1: edema ([3]; 1 Week, evaluation 1) | erosion/excoriation ([3]; 1 Week, evaluation 1) | erythema/hemorrhage ([3]; 1 Week, evaluation 1) | edema ([3]; 1 Week, evaluation 2) | erythema/hemorrhage ([3]; 1 Week, evaluation 2) | dryness/scarring ([6]; 1 Week, evaluation 1) | erosion/excoriation ([6]; 1 Week, evaluation 1) | dryness/scarring ([6]; 1 Week, evaluation 2) | edema ([6]; 1 Week, evaluation 2) | dryness/scarring ([6]; 4 Weeks, evaluation 8) | erosion/excoriation ([6]; 5 Weeks, evaluation 9) | edema ([6]; 5 Weeks, evaluation 10) | erosion/excoriation ([6]; 5 Weeks, evaluation 10) | erythema/hemorrhage ([6]; 5 Weeks, evaluation 10) | dryness/scarring ([6]; 6 Weeks, evaluation 11) | edema ([6]; 6 Weeks, evaluation 11) | erosion/excoriation ([6]; 6 Weeks, evaluation 11) | erythema/hemorrhage ([6]; 6 Weeks, evaluation 11) | Total severity score ([6]; 6 Weeks, evaluation 12) | dryness/scarring ([6]; 6 Weeks, evaluation 12)
0: edema ([6]; 1 Week, evaluation 1) | edema ([6]; 6 Weeks, evaluation 12) | erosion/excoriation ([6]; 6 Weeks, evaluation 12) | erythema/hemorrhage ([6]; 6 Weeks, evaluation 12)
6: Total severity score ([3]; 1 Week, evaluation 2) | Total severity score ([6]; 1 Week, evaluation 2) | Mean severity score ([6]; 5 Weeks)
9: Mean severity score ([3]; 6 Weeks) | Total severity score ([6]; 4 Weeks, evaluation 8)
3: dryness/scarring ([3]; 2 Weeks, evaluation 3) | edema ([3]; 2 Weeks, evaluation 3) | erythema/hemorrhage ([3]; 2 Weeks, evaluation 3) | dryness/scarring ([3]; 2 Weeks, evaluation 4) | erythema/hemorrhage ([3]; 2 Weeks, evaluation 4) | dryness/scarring ([3]; 3 Weeks, evaluation 5) | edema ([3]; 3 Weeks, evaluation 5) | erosion/excoriation ([3]; 3 Weeks, evaluation 5) | erythema/hemorrhage ([3]; 3 Weeks, evaluation 5) | dryness/scarring ([3]; 3 Weeks, evaluation 6) | erosion/excoriation ([3]; 3 Weeks, evaluation 6) | erythema/hemorrhage ([3]; 3 Weeks, evaluation 6) | dryness/scarring ([3]; 4 Weeks, evaluation 7) | edema ([3]; 4 Weeks, evaluation 7) | erosion/excoriation ([3]; 4 Weeks, evaluation 7) | erythema/hemorrhage ([3]; 4 Weeks, evaluation 7) | dryness/scarring ([3]; 4 Weeks, evaluation 8) | edema ([3]; 4 Weeks, evaluation 8) | erythema/hemorrhage ([3]; 4 Weeks, evaluation 8) | dryness/scarring ([3]; 5 Weeks, evaluation 9) | erosion/excoriation ([3]; 5 Weeks, evaluation 9) | erythema/hemorrhage ([3]; 5 Weeks, evaluation 9) | dryness/scarring ([3]; 5 Weeks, evaluation 10) | edema ([3]; 5 Weeks, evaluation 10) | erythema/hemorrhage ([3]; 5 Weeks, evaluation 10) | dryness/scarring ([3]; 6 Weeks, evaluation 11) | erythema/hemorrhage ([3]; 6 Weeks, evaluation 11) | edema ([6]; 3 Weeks, evaluation 5) | erosion/excoriation ([6]; 3 Weeks, evaluation 5) | erythema/hemorrhage ([6]; 3 Weeks, evaluation 5) | erosion/excoriation ([6]; 3 Weeks, evaluation 6) | erythema/hemorrhage ([6]; 3 Weeks, evaluation 6) | dryness/scarring ([6]; 4 Weeks, evaluation 7) | erosion/excoriation ([6]; 4 Weeks, evaluation 7) | erythema/hemorrhage ([6]; 4 Weeks, evaluation 7) | erosion/excoriation ([6]; 4 Weeks, evaluation 8) | erythema/hemorrhage ([6]; 4 Weeks, evaluation 8)
10: Total severity score ([3]; 2 Weeks, evaluation 4) | Total severity score ([3]; 6 Weeks, evaluation 11) | Total severity score ([6]; 3 Weeks, evaluation 6) | Total severity score ([6]; 4 Weeks, evaluation 7)
reduced: mRNA expression level of IFN-γ [5] | mRNA expression level of IL-4 [5] | mRNA expression level of IL-5 [5] | mRNA expression level of IL-12 [5] | mRNA expression level of TARC [5] | mRNA expression level of TNF-α [5]
7: Total severity score ([6]; 5 Weeks, evaluation 9)
remarkably improved: skin condition observed by the naked eye [6]
48%: inhibition of IgE production [1]
62%: inhibition of IgE production [4]
5.5: Mean severity score ([3]; 1 Week)
4: Total severity score ([6]; 1 Week, evaluation 1) | Total severity score ([6]; 6 Weeks, evaluation 11)
11: Total severity score ([3]; 2 Weeks, evaluation 3) | Total severity score ([3]; 3 Weeks, evaluation 6) | Total severity score ([3]; 4 Weeks, evaluation 8) | Mean severity score ([3]; 5 Weeks) | Total severity score ([3]; 5 Weeks, evaluation 9) | Total severity score ([3]; 5 Weeks, evaluation 10) | Total severity score ([6]; 3 Weeks, evaluation 5)
5: Total severity score ([3]; 1 Week, evaluation 1) | Mean severity score ([6]; 1 Week) | Total severity score ([6]; 5 Weeks, evaluation 10)
10.5: Mean severity score ([3]; 2 Weeks) | Mean severity score ([6]; 3 Weeks)
2: dryness/scarring ([3]; 1 Week, evaluation 1) | dryness/scarring ([3]; 1 Week, evaluation 2) | erosion/excoriation ([3]; 1 Week, evaluation 2) | erosion/excoriation ([3]; 2 Weeks, evaluation 3) | edema ([3]; 2 Weeks, evaluation 4) | erosion/excoriation ([3]; 2 Weeks, evaluation 4) | edema ([3]; 3 Weeks, evaluation 6) | erosion/excoriation ([3]; 4 Weeks, evaluation 8) | edema ([3]; 5 Weeks, evaluation 9) | erosion/excoriation ([3]; 5 Weeks, evaluation 10) | edema ([3]; 6 Weeks, evaluation 11) | erosion/excoriation ([3]; 6 Weeks, evaluation 11) | dryness/scarring ([3]; 6 Weeks, evaluation 12) | edema ([3]; 6 Weeks, evaluation 12) | erosion/excoriation ([3]; 6 Weeks, evaluation 12) | erythema/hemorrhage ([3]; 6 Weeks, evaluation 12) | erythema/hemorrhage ([6]; 1 Week, evaluation 1) | erosion/excoriation ([6]; 1 Week, evaluation 2) | erythema/hemorrhage ([6]; 1 Week, evaluation 2) | dryness/scarring ([6]; 2 Weeks, evaluation 3) | edema ([6]; 2 Weeks, evaluation 3) | erosion/excoriation ([6]; 2 Weeks, evaluation 3) | erythema/hemorrhage ([6]; 2 Weeks, evaluation 3) | dryness/scarring ([6]; 2 Weeks, evaluation 4) | edema ([6]; 2 Weeks, evaluation 4) | erosion/excoriation ([6]; 2 Weeks, evaluation 4) | erythema/hemorrhage ([6]; 2 Weeks, evaluation 4) | dryness/scarring ([6]; 3 Weeks, evaluation 5) | dryness/scarring ([6]; 3 Weeks, evaluation 6) | edema ([6]; 3 Weeks, evaluation 6) | edema ([6]; 4 Weeks, evaluation 7) | edema ([6]; 4 Weeks, evaluation 8) | dryness/scarring ([6]; 5 Weeks, evaluation 9) | edema ([6]; 5 Weeks, evaluation 9) | erythema/hemorrhage ([6]; 5 Weeks, evaluation 9) | dryness/scarring ([6]; 5 Weeks, evaluation 10)
significantly reduced: dead skin cell exfoliation, epidermal hypertrophy, and hyperkeratosis [2] | protein level of IFN-γ [7] | protein level of IL-4 [7] | protein level of IL-5 [7] | protein level of IL-12 [7] | protein level of TARC [7] | protein level of TNF-α [7]
